Legend:
AnUGP = molecular target: T1, AnUGP (Aspergillus nidulans, UniProt C8VK50); experiment: malachite green phosphate assay coupled to inorganic pyrophosphatase; type: biochemical; details: 0.25 mM UTP, 0.25 mM Glc-1-P, 2 mM MgCl2, 100 mM NaCl, 50 mM Tris-HCl pH 7.5, 30 °C
T1 construct: gene ANIA_09148; homooctamer
T1 sequence (C8VK50 1-514): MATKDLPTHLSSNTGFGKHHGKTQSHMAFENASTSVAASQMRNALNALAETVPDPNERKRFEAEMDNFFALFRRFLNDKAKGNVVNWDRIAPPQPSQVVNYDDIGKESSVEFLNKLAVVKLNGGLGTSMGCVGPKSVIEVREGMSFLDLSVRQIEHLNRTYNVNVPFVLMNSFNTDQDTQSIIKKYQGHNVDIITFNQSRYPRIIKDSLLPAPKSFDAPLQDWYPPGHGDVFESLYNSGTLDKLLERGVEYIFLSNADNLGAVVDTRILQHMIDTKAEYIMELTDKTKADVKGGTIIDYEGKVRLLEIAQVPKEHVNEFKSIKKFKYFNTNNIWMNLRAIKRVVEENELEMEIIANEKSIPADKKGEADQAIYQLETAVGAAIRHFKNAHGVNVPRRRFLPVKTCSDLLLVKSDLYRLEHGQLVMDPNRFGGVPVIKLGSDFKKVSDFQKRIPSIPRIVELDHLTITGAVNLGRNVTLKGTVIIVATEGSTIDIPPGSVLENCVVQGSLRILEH

[1] = molecular target: UDP-glucose pyrophosphorylase from Aspergillus nidulans (Aspergillus nidulans); experiment: SEC; Superose 6 GL 10/300 in buffer A (50 mM Tris, 200 mM NaCl, 2 mM β-mercaptoethanol, pH 7.8); peak around 14.5 mL
[2] = molecular target: UDP-glucose pyrophosphorylase from Aspergillus nidulans (Aspergillus nidulans); experiment: cryo-EM structure; native AnUGP in buffer A at 0.18 mg/mL, vitrified on Quantifoil R1.2/1.3 grids; Titan Krios 300 kV; C1, D4 and locally refined maps; 3D variability analysis

stoichiometry N [1]	stoichiometry N [2]	Compound	malachite green phosphate assay coupled to inorganic pyrophosphatase (AnUGP)
		O=P(O)(O)O[C@H]1O[C@H](CO)[C@@H](O)[C@H](O)[C@H]1O [Glc-1-P]	AnUGP catalyzes the condensation reaction between UTP and Glc-1-P to produce UDP-Glc and PPi
		O=c1ccn([C@@H]2O[C@H](COP(=O)(O)OP(=O)(O)OP(=O)(O)O)[C@@H](O)[C@H]2O)c(=O)[nH]1 [UTP]	the enzyme was specific for UTP and unable to use ATP or GTP
8	8	UDP-glucose pyrophosphorylase from Aspergillus nidulans (enzyme)	
